# Laboratory results taken from patent US7417156B2, “Orally active, antimalarial, anticancer, artemisinin-derived trioxane dimers” (Johns Hopkins University, priority 2002, dated 2008).
# Columns and labels:
# SN12C = assay: NCI 60 cell line panel screen (SRB); assay type: cell-based, human; settings: for Log10GI50: Renal Cancer, SN12C; for Log10LC50 / Log10TGI50: SN12C (Renal Cancer); for Log10LC50: LC50: PG=−50; for Log10TGI50: TGI: PG=0
# DU-145 = assay: NCI 60 cell line panel screen (SRB); assay type: cell-based, human; settings: for Log10TGI50: TGI: PG=0; for Log10GI50: Prostate Cancer, DU-145
# SW-620 = assay: NCI 60 cell line panel screen (SRB); assay type: cell-based, human; settings: for Log10GI50: Colon Cancer, SW-620; for Log10LC50 / Log10TGI50: SW-620 (Colon Cancer); for Log10LC50: LC50: PG=−50; for Log10TGI50: TGI: PG=0
# OVCAR-8 = assay: NCI 60 cell line panel screen (SRB); assay type: cell-based, human; settings: for Log10LC50: LC50: PG=−50; for Log10GI50: Ovarian Cancer, OVCAR-8
# OVCAR-4 = assay: NCI 60 cell line panel screen (SRB); assay type: cell-based, human; settings: for Log10LC50 / Log10TGI50: OVCAR-4 (Ovarian Cancer); for Log10LC50: LC50: PG=−50; for Log10TGI50: TGI: PG=0; for Log10GI50: Ovarian Cancer, OVCAR-4
# UACC-62 = assay: NCI 60 cell line panel screen (SRB); assay type: cell-based, human; settings: for Log10LC50 / Log10TGI50: UACC-62 (Melanoma); for Log10LC50: LC50: PG=−50; for Log10TGI50: TGI: PG=0
# HCC-2998 = assay: NCI 60 cell line panel screen (SRB); assay type: cell-based, human; settings: for Log10LC50 / Log10TGI50: HCC-2998 (Colon Cancer); for Log10LC50: LC50: PG=−50; for Log10TGI50: TGI: PG=0
# OVCAR-3 = assay: NCI 60 cell line panel screen (SRB); assay type: cell-based, human; settings: for Log10LC50 / Log10TGI50: OVCAR-3 (Ovarian Cancer); for Log10LC50: LC50: PG=−50; for Log10TGI50: TGI: PG=0; for Log10GI50: Ovarian Cancer, OVCAR-3
# A498 = assay: NCI 60 cell line panel screen (SRB); assay type: cell-based, human; settings: for Log10LC50 / Log10TGI50: A498 (Renal Cancer); for Log10LC50: LC50: PG=−50; for Log10TGI50: TGI: PG=0; for Log10GI50: Renal Cancer, A498
# KM12 = assay: NCI 60 cell line panel screen (SRB); assay type: cell-based, human; settings: for Log10GI50: Colon Cancer, KM12; for Log10LC50 / Log10TGI50: KM12 (Colon Cancer); for Log10LC50: LC50: PG=−50; for Log10TGI50: TGI: PG=0
# 60 cell line panel = assay type: cell-based; settings: for Log10LC50 Delta / Log10LC50 Range / Log10TGI50 Delta / Log10TGI50 Range: 60 cell line panel; for Log10GI50 MG MID: mean over panel; for Log10LC50 MG MID / Log10TGI50 MG MID: mean value over the 60 cell line panel
# LOX IMVI = assay: NCI 60 cell line panel screen (SRB); assay type: cell-based, human; settings: for Log10LC50 / Log10TGI50: LOX IMVI (Melanoma); for Log10LC50: LC50: PG=−50; for Log10TGI50: TGI: PG=0; for Log10GI50: Melanoma, LOX IMVI
# T-47D = assay: NCI 60 cell line panel screen (SRB); assay type: cell-based, human; settings: for Log10GI50: Breast Cancer, T-47D; for Log10LC50 / Log10TGI50: T-47D (Breast Cancer); for Log10LC50: LC50: PG=−50; for Log10TGI50: TGI: PG=0
# SK-MEL-5 = assay: NCI 60 cell line panel screen (SRB); assay type: cell-based, human; settings: for Log10GI50: Melanoma, SK-MEL-5; for Log10LC50 / Log10TGI50: SK-MEL-5 (Melanoma); for Log10LC50: LC50: PG=−50; for Log10TGI50: TGI: PG=0
# HS 578T = assay: NCI 60 cell line panel screen (SRB); assay type: cell-based, human; settings: for Log10GI50: Breast Cancer, HS 578T; for Log10LC50 / Log10TGI50: HS 578T (Breast Cancer); for Log10LC50: LC50: PG=−50; for Log10TGI50: TGI: PG=0
# SF-295 = assay: NCI 60 cell line panel screen (SRB); assay type: cell-based, human; settings: for Log10GI50: CNS Cancer, SF-295; for Log10LC50 / Log10TGI50: SF-295 (CNS Cancer); for Log10LC50: LC50: PG=−50; for Log10TGI50: TGI: PG=0
# NCI-H226 = assay: NCI 60 cell line panel screen (SRB); assay type: cell-based, human
# malaria parasite = assay: Efficacy Study Blood Schizontocidal Activity; assay type: in vivo; design: ED90: unit not given here
# male CD-1 mice = assay: Acute toxicity study, single intraperitoneal injection; settings: for Mortality: single ip, male CD-1 mice
# Procedure: Each compound was dissolved in DMSO (Mallinkrodt Lot No. V18H15) to achieve a concentration of 200 mg/ml, and then 3 parts sesame oil (Spectrum Lot No. M10656) was added to make a working concentration of 50 mg/ml for dose administration. Stability, strength, and uniformity of the test articles in the dose formulations were not determined for this study.
# Forty-two CD1 male mice purchased from Charles River Laboratories (Wilmington, Mass.) were used in the study. Mice were quarantined for 3 days prior to initiation of the study.
# Mice were weighed and randomized into treatment groups on the day prior to the first dose administration. Due to limitations in the amount of available test materials, fewer mice in 1000 mg/kg groups were treated than specified in the protocol. The numbers of animals intended to be used and actually used with each compound at each dose level are shown in the table below; the only differences are in the high-dose groups.
# Surviving animals were sacrificed on Day 8 and blood was collected for clinical pathology evaluations.
# Mortality and morbidity were checked twice daily on weekdays and once daily on the weekend, see Table VI. Animals were weighed daily and prior to necropsy.
compound,measurement,setting,value
"CC1CCC2C(C)C(CC(O)(CO)CC3OC4OC5(C)CCC6C(C)CCC(C3C)C46OO5)OC3OC4(C)CCC1C32OO4 (centres unmarked) [Compound 5, bis-trioxane vicinal diol]",Log10GI50,SN12C,−7.60
same,Log10LC50,SN12C,−4.26 log10M
same,Log10TGI50,SN12C,−4.72 log10M
same,Log10LC50,"DU-145; DU-145 (Prostate Cancer), LC50: PG=−50",−4.13 log10M
same,Log10TGI50,DU-145; DU-145 (Prostate Cancer),−4.48 log10M
same,Log10GI50,DU-145,−4.83
same,Log10GI50,SW-620,−4.97
same,Log10LC50,SW-620,>−4.00 log10M
same,Log10TGI50,SW-620,>−4.00 log10M
same,Log10LC50,OVCAR-8; OVCAR-8 (Ovarian Cancer),>−4.00 log10M
same,Log10TGI50,"OVCAR-8; OVCAR-8 (Ovarian Cancer), TGI: PG=0",−4.47 log10M
same,Log10GI50,OVCAR-8,<−8.00
same,Log10LC50,OVCAR-4,−4.12 log10M
same,Log10TGI50,OVCAR-4,−4.55 log10M
same,Log10GI50,OVCAR-4,−4.99
same,Log10LC50,UACC-62,−4.24 log10M
same,Log10TGI50,UACC-62,−4.67 log10M
same,Log10GI50,"HCC-2998; Colon Cancer, HCC-2998",−4.65
same,Log10LC50,HCC-2998,>−4.00 log10M
same,Log10TGI50,HCC-2998,−4.23 log10M
same,Log10LC50,OVCAR-3,>−4.00 log10M
same,Log10TGI50,OVCAR-3,−4.45 log10M
same,Log10GI50,OVCAR-3,−5.09
same,Log10LC50,A498,−4.21 log10M
same,Log10TGI50,A498,−4.51 log10M
same,Log10GI50,A498,−4.81
same,Log10GI50,KM12,<−8.00
same,Log10LC50,KM12,>−4.00 log10M
same,Log10TGI50,KM12,−4.47 log10M
same,Log10GI50 Delta,60 cell line panel,2.03
same,Log10GI50 Range,60 cell line panel,3.47
same,Log10LC50 Delta,60 cell line panel,0.37
same,Log10LC50 Range,60 cell line panel,0.47
same,Log10TGI50 Delta,60 cell line panel,3.50
same,Log10TGI50 Range,60 cell line panel,4.00
same,growth inhibition and cytotoxicity in words,60 cell line panel; human cancer cell lines in general,strongly inhibitory but not cytotoxic
same,growth inhibition in words,"60 cell line panel; leukemia cell line RPM 1-8226, melanoma cell line SK-MEL-5, renal cancer cell line ACHN",selectively and strongly inhibitory
same,Log10GI50 MG MID,60 cell line panel,−5.97
same,Log10LC50 MG MID,60 cell line panel,−4.09 log10M
same,Log10TGI50 MG MID,60 cell line panel,−4.50 log10M
same,Log10LC50,LOX IMVI,−4.44 log10M
same,Log10TGI50,LOX IMVI,−5.47 log10M
same,Log10GI50,LOX IMVI,<−8.00
same,Log10GI50,T-47D,−7.23
same,Log10LC50,T-47D,>−4.00 log10M
same,Log10TGI50,T-47D,−4.48 log10M
same,Log10GI50,SK-MEL-5,−7.69
same,Log10LC50,SK-MEL-5,−4.21 log10M
same,Log10TGI50,SK-MEL-5,−4.64 log10M
same,Log10GI50,HS 578T,−4.72
same,Log10LC50,HS 578T,>−4.00 log10M
same,Log10TGI50,HS 578T,−4.08 log10M
same,Log10GI50,SF-295,−4.94
same,Log10LC50,SF-295,−4.04 log10M
same,Log10TGI50,SF-295,−4.49 log10M
same,Log10LC50,"NCI-H226; NCI-H226 (Non-Small Cell Lung Cancer), LC50: PG=−50",−4.11 log10M
same,Log10TGI50,"NCI-H226; NCI-H226 (Non-Small Cell Lung Cancer), TGI: PG=0",−4.49 log10M
same,Log10GI50,"NCI-H226; Non-Small Cell Lung Cancer, NCI-H226",−4.87
"CC1CCC2C(C)C(CC(COC(=O)c3cc[n+]([O-])cc3)CC3OC4OC5(C)CCC6C(C)CCC(C3C)C46OO5)OC3OC4(C)CCC1C32OO4 (centres unmarked) [Compound 13, bis-trioxane primary alcohol isonicotinate N-oxide]",Log10GI50,SN12C,<−8.30
same,Log10LC50,SN12C,−4.72 log10M
same,Log10TGI50,SN12C,−5.29 log10M
same,Log10TGI50,DU-145; DU-145 (Prostate Cancer),−5.00 log10M
same,Log10GI50,DU-145,−7.48
same,Log10GI50,SW-620,<−8.30
same,Log10LC50,SW-620,−4.53 log10M
same,Log10TGI50,SW-620,−5.05 log10M
same,Log10LC50,OVCAR-8; OVCAR-8 (Ovarian Cancer),>−4.30 log10M
same,Log10GI50,OVCAR-8,−7.69
same,ED50,malaria parasite; Route: IV,0.55 mg/kg
same,ED90,malaria parasite; Route: IV,2.0
same,ED50,malaria parasite; Route: PO,4 mg/kg
same,ED90,malaria parasite; Route: PO,9.0
same,efficacy relative to sodium artesunate in words,malaria parasite; orally and i.v.,more efficacious
same,Log10LC50,OVCAR-4,−4.42 log10M
same,Log10TGI50,OVCAR-4,−4.93 log10M
same,Log10GI50,OVCAR-4,<−8.30
same,Log10GI50,"UACC-62; Melanoma, UACC-62",−8.00
same,Log10LC50,UACC-62,−4.66 log10M
same,Log10TGI50,UACC-62,−5.07 log10M
same,Log10LC50,HCC-2998,−4.55 log10M
same,Log10TGI50,HCC-2998,−4.91 log10M
same,Log10LC50,OVCAR-3,−4.51 log10M
same,Log10TGI50,OVCAR-3,−4.98 log10M
same,Log10GI50,OVCAR-3,−7.75
same,Log10LC50,A498,−4.74 log10M
same,Log10TGI50,A498,−5.31 log10M
same,Log10GI50,A498,−6.97
same,Log10GI50,KM12,<−8.30
same,Log10LC50,KM12,−4.37 log10M
same,Log10TGI50,KM12,−5.04 log10M
same,Log10GI50 Delta,60 cell line panel,0.92
same,Log10GI50 Range,60 cell line panel,3.22
same,Log10LC50 Delta,60 cell line panel,1.27
same,Log10LC50 Range,60 cell line panel,1.49
same,Log10TGI50 Delta,60 cell line panel,3.15
same,Log10TGI50 Range,60 cell line panel,4.00
same,Log10GI50 MG MID,60 cell line panel,−7.38
same,Log10LC50 MG MID,60 cell line panel,−4.51 log10M
same,Log10TGI50 MG MID,60 cell line panel,−5.15 log10M
same,Log10LC50,LOX IMVI,−5.78 log10M
same,Log10TGI50,LOX IMVI,<−8.30 log10M
same,Log10GI50,LOX IMVI,<−8.30
same,Log10GI50,T-47D,<−8.30
same,Log10LC50,T-47D,>−4.30 log10M
same,Log10TGI50,T-47D,−5.36 log10M
same,Log10GI50,SK-MEL-5,<−8.30
same,Log10LC50,SK-MEL-5,−4.73 log10M
same,Log10TGI50,SK-MEL-5,−5.28 log10M
same,Log10GI50,HS 578T,<−8.30
same,Log10LC50,HS 578T,−4.35 log10M
same,Log10TGI50,HS 578T,−5.00 log10M
same,Log10GI50,SF-295,−5.21
same,Log10LC50,SF-295,−4.33 log10M
same,Log10TGI50,SF-295,−4.77 log10M
same,Mortality,male CD-1 mice; 125 mg/kg,No death
same,Mortality,male CD-1 mice; 250 mg/kg,No death
same,Mortality,male CD-1 mice; 500 mg/kg,3/3 dead
same,Mortality,male CD-1 mice; 750 mg/kg,2/3 dead
same,toxicity relative to sodium artesunate in words,male CD-1 mice; intraperitoneally to mice as a single dose,less toxic
